The test system of one test is Mus musculus. Kind of test: Antinociceptive potency in mice using the tail-flick test on icv administration. The test is classed as functional. (Thermal pain tests record how soon the animal reacts.)
In test [1] the target is Kappa-type opioid receptor (Cavia porcellus, UniProt P41144). Kind of test: selective binding affinity against kappa opioid receptor, using [3H]U-69593 as radioligand.
Another test deals with Mu-type opioid receptor (Cavia porcellus, UniProt P97266). Kind of test: selective binding affinity against mu opioid receptor, using [3H]DAMGO as radioligand.
Sequence of Mu-type opioid receptor (P97266 whole entry): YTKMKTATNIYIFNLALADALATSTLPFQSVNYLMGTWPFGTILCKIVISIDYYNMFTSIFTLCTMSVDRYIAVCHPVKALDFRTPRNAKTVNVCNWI

Sequence of Kappa-type opioid receptor (P41144 whole entry): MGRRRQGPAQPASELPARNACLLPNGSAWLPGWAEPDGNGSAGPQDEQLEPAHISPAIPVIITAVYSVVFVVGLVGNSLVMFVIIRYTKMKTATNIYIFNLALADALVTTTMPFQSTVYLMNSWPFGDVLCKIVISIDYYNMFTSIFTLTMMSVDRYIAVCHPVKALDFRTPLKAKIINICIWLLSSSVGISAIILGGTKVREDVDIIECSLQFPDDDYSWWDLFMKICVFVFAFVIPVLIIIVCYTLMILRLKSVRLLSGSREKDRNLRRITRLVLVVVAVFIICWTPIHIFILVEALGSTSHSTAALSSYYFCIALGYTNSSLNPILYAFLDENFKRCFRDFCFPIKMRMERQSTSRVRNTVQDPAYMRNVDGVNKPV

Regarding `CC1(C)SSC(C)(C)[C@@H](NC(=O)[C@@H](N)Cc2ccc(O)cc2)C(=O)NCC(=O)N[C@@H](Cc2ccccc2)C(=O)N[C@H]1C(=O)O`, the ED50 with Mus musculus came to 11.5 nM mouse-1.
What is called Ki is the equilibrium dissociation constant of an inhibitor or competing ligand from its target. Low readings indicate higher affinity, high ones lower affinity. In the test on Mus musculus, `CN1CC[C@]23c4c5ccc(O)c4O[C@H]2C(=O)C2(Cc4ccccc4C2)C[C@@]3(O)[C@H]1C5` [SPIROINDANYLOXYMORPHONE] came in with an ED50 of 1.7 nM mouse-1. Moreover, the results for the Ki (in test [1]; at Mu-type opioid receptor) were 588 nM and 10.6 nM, respectively.

The values above are taken from ChEMBL document CHEMBL1126784, “A selective delta 1 opioid receptor agonist derived from oxymorphone. Evidence for separate recognition sites for delta 1 opioid receptor agonists and antagonists” (J Med Chem, 1993).
